{"source": "ChEMBL document CHEMBL4765421", "about": "“Synthesis of natural 3'-Prenylchalconaringenin and biological evaluation of ameliorating non-alcoholic fatty liver disease and metabolic syndrome” (Eur J Med Chem, 2020)", "key": {"[1]": {"system": "Mus musculus", "test": "Hypolipidemic activity in tyloxapol-induced Kunming mouse model of hyperlipidemia assessed as reduction in liver AST level administered orally measured after 24 hrs", "format": "functional, organism-based"}, "[2]": {"system": "Mus musculus", "test": "Hypolipidemic activity in tyloxapol-induced Kunming mouse model of hyperlipidemia assessed as reduction in liver total cholesterol level administered orally measured after 24 hrs", "format": "functional, organism-based"}, "[3]": {"system": "Mus musculus", "test": "In vivo induction of AMPK in tyloxapol-induced Kunming mouse model of hyperlipidemia assessed as increase in AKT phosphorylation in white adipose tissue at 50 to 100 mg/kg, po measured after 24 hrs by Western blot analysis", "format": "functional, organism-based", "conditions": "dose 50-100 mg/kg"}, "[4]": {"system": "Mus musculus", "test": "Hypolipidemic activity in tyloxapol-induced Kunming mouse model of hyperlipidemia assessed as reduction in serum triglyceride level administered orally measured after 24 hrs", "format": "functional, organism-based"}, "[5]": {"system": "Mus musculus", "test": "Hypolipidemic activity in tyloxapol-induced Kunming mouse model of hyperlipidemia assessed as spleen index at 50 mg/kg, po measured after 24 hrs (reference value: 3.87 +/- 0.05)", "format": "functional"}, "[6]": {"system": "3T3-L1", "test": "Hypolipidemic activity in mouse 3T3-L1 mature adipocytes assessed as reduction in triglyceride content", "format": "functional, cell-based"}, "[7]": {"system": "Mus musculus", "test": "Hypolipidemic activity in tyloxapol-induced Kunming mouse model of hyperlipidemia assessed as increase in serum SOD level at 100 mg/kg, po measured after 24 hrs", "format": "functional, organism-based"}, "[8]": {"system": "Mus musculus", "test": "Hypolipidemic activity in tyloxapol-induced Kunming mouse model of hyperlipidemia assessed as reduction in serum total cholesterol level administered orally measured after 24 hrs", "format": "functional, organism-based"}, "[9]": {"system": "Mus musculus", "test": "In vivo induction of AMPK in tyloxapol-induced Kunming mouse model of hyperlipidemia assessed as decrease in FAS expression in liver at 50 to 100 mg/kg, po measured after 24 hrs by Western blot analysis", "format": "functional, organism-based", "conditions": "dose 50-100 mg/kg"}, "[10]": {"system": "3T3-L1", "test": "Hypolipidemic activity in mouse 3T3-L1 mature adipocytes assessed as reduction in lipid content at 1 uM by Oil Red O staining based assay relative to control", "format": "functional", "set-up": "scale not given: the % may be the effect or the level left"}, "[11]": {"system": "HepG2", "test": "Hypolipidemic activity in oleic, palmitic, linoleic and arachidonic acid 29:47:18:6 (v/v)-induced hyperlipidemia in human HepG2 cells assessed as reduction in lipid content at 10 uM by Oil Red O staining based assay relative to control", "format": "functional", "set-up": "scale not given: the % may be the effect or the level left"}, "[12]": {"system": "Mus musculus", "test": "Hypolipidemic activity in tyloxapol-induced Kunming mouse model of hyperlipidemia assessed as spleen index at 100 mg/kg, po measured after 24 hrs (reference value: 3.87 +/- 0.05)", "format": "functional"}, "[13]": {"system": "Mus musculus", "test": "In vivo induction of AMPK in tyloxapol-induced Kunming mouse model of hyperlipidemia assessed as increase in AMPKalpha phosphorylation in white adipose tissue at 50 to 100 mg/kg, po measured after 24 hrs by Western blot analysis", "format": "functional, organism-based", "conditions": "dose 50-100 mg/kg"}, "[14]": {"system": "HepG2", "test": "Hypolipidemic activity in oleic, palmitic, linoleic and arachidonic acid 29:47:18:6 (v/v)-induced hyperlipidemia in human HepG2 cells assessed as reduction in lipid content by Nile Red and DAPI staining based fluorescence microscopic analysis", "format": "functional, cell-based"}, "[15]": {"system": "Mus musculus", "test": "In vivo induction of AMPK in tyloxapol-induced Kunming mouse model of hyperlipidemia assessed as increase in ACC phosphorylation in white adipose tissue at 50 to 100 mg/kg, po measured after 24 hrs by Western blot analysis", "format": "functional, organism-based", "conditions": "dose 50-100 mg/kg"}, "[16]": {"system": "Mus musculus", "test": "Hypolipidemic activity in tyloxapol-induced Kunming mouse model of hyperlipidemia assessed as increase in appearance of hepatic lobules at 50 to 100 mg/kg, po measured after 24 hrs by Oil Red O staining based assay", "format": "functional, organism-based", "conditions": "dose 50-100 mg/kg"}, "[17]": {"system": "Mus musculus", "test": "In vivo effect on PPAR signaling in tyloxapol-induced Kunming mouse model of hyperlipidemia assessed as increase in mTOR phosphorylation in white adipose tissue administered orally measured after 24 hrs by Western blot analysis", "format": "functional, organism-based"}, "[18]": {"system": "Mus musculus", "test": "Hypolipidemic activity in tyloxapol-induced Kunming mouse model of hyperlipidemia assessed as reduction in fatty liver phenotype at 50 to 100 mg/kg, po measured after 24 hrs", "format": "functional, organism-based", "conditions": "dose 50-100 mg/kg"}, "[19]": {"system": "3T3-L1", "test": "Activation of AMPK in mouse 3T3-L1 matured adipocytes assessed as increase in ACC phosphorylation at 1 uM by Western blot analysis relative to control", "format": "cell-based", "conditions": "filed as activator"}, "[20]": {"system": "Mus musculus", "test": "Hypolipidemic activity in tyloxapol-induced Kunming mouse model of hyperlipidemia assessed as reduction in liver triglyceride level administered orally measured after 24 hrs", "format": "functional, organism-based"}, "[21]": {"system": "Mus musculus", "test": "In vivo effect on PPAR signaling in tyloxapol-induced Kunming mouse model of hyperlipidemia assessed as increase in mTOR phosphorylation in liver administered orally measured after 24 hrs by Western blot analysis", "format": "functional, organism-based"}, "[22]": {"system": "Mus musculus", "test": "In vivo induction of AMPK in tyloxapol-induced Kunming mouse model of hyperlipidemia assessed as decrease in SREBP1-C expression in liver at 50 to 100 mg/kg, po measured after 24 hrs by Western blot analysis", "format": "functional, organism-based", "conditions": "dose 50-100 mg/kg"}, "[23]": {"system": "Mus musculus", "test": "Hypolipidemic activity in tyloxapol-induced Kunming mouse model of hyperlipidemia assessed as epididymis white adipose tissue index at 50 mg/kg, po measured after 24 hrs (reference value: 23.43 +/- 3.10)", "format": "functional"}, "[24]": {"system": "Mus musculus", "test": "In vivo effect on PPAR signaling in tyloxapol-induced Kunming mouse model of hyperlipidemia assessed as increase in PPARalpha expression in white adipose tissue at 50 to 100 mg/kg, po measured after 24 hrs by Western blot analysis", "format": "functional, organism-based", "conditions": "dose 50-100 mg/kg"}, "[25]": {"system": "Mus musculus", "test": "In vivo induction of AMPK in tyloxapol-induced Kunming mouse model of hyperlipidemia assessed as increase in AMPKalpha phosphorylation in liver at 50 to 100 mg/kg, po measured after 24 hrs by Western blot analysis", "format": "functional, organism-based", "conditions": "dose 50-100 mg/kg"}, "[26]": {"system": "3T3-L1", "test": "Hypolipidemic activity in mouse 3T3-L1 mature adipocytes assessed as reduction in lipid content at 15 uM by Oil Red O staining based assay relative to control", "format": "functional", "set-up": "scale not given: the % may be the effect or the level left"}, "[27]": {"system": "3T3-L1", "test": "Activation of AMPK in mouse 3T3-L1 preadipocytes assessed as increase in AMPK phosphorylation at 0.1 to 15 uM by Western blot analysis", "format": "cell-based", "conditions": "filed as activator, dose 0.1-15 µM"}, "[28]": {"system": "Mus musculus", "test": "Hypolipidemic activity in tyloxapol-induced Kunming mouse model of hyperlipidemia assessed as reduction in serum IL6 level at 50 to 100 mg/kg, po measured after 24 hrs", "format": "functional, organism-based", "conditions": "dose 50-100 mg/kg"}, "[29]": {"system": "Mus musculus", "test": "Hypolipidemic activity in tyloxapol-induced Kunming mouse model of hyperlipidemia assessed as kidney index at 50 mg/kg, po measured after 24 hrs (reference value: 11.20 +/- 0.58)", "format": "functional"}, "[30]": {"system": "HepG2", "test": "Hypolipidemic activity in oleic, palmitic, linoleic and arachidonic acid 29:47:18:6 (v/v)-induced hyperlipidemia in human HepG2 cells assessed as reduction in triglyceride content", "format": "functional, cell-based"}, "[31]": {"system": "Mus musculus", "test": "In vivo effect on PPAR signaling in tyloxapol-induced Kunming mouse model of hyperlipidemia assessed as increase in PPARalpha expression in liver at 50 to 100 mg/kg, po measured after 24 hrs by Western blot analysis", "format": "functional, organism-based", "conditions": "dose 50-100 mg/kg"}, "[32]": {"system": "Mus musculus", "test": "Hypolipidemic activity in tyloxapol-induced Kunming mouse model of hyperlipidemia assessed as reduction in liver ALT level administered orally measured after 24 hrs", "format": "functional, organism-based"}, "[33]": {"system": "Mus musculus", "test": "In vivo induction of AMPK in tyloxapol-induced Kunming mouse model of hyperlipidemia assessed as decrease in FAS expression in white adipose tissue at 50 to 100 mg/kg, po measured after 24 hrs by Western blot analysis", "format": "functional, organism-based", "conditions": "dose 50-100 mg/kg"}, "[34]": {"system": "HepG2", "test": "Hypolipidemic activity in oleic, palmitic, linoleic and arachidonic acid 29:47:18:6 (v/v)-induced hyperlipidemia in human HepG2 cells assessed as reduction in lipid content at 20 uM by Oil Red O staining based assay relative to control", "format": "functional", "set-up": "scale not given: the % may be the effect or the level left"}}, "note": "Calls of active or inactive are those of the source. No cut-off for these calls is given here."}
{"molecule": "CC(C)=CCC/C(C)=C/Cc1c(O)cc(O)c(C(=O)/C=C/c2ccc(O)cc2)c1O", "values": [{"measurement": "Activity", "setting": "[1]", "result": "Dose-dependent effect"}, {"measurement": "Activity", "setting": "[2]", "result": "Dose-dependent effect"}, {"measurement": "Activity", "setting": "[3]", "result": "Active"}, {"measurement": "Activity", "setting": "[4]", "result": "Dose-dependent effect"}, {"measurement": "Activity_index", "setting": "[5]", "result": 2.8}, {"measurement": "Activity", "setting": "[6]", "result": "Dose-dependent effect"}, {"measurement": "Activity", "setting": "[7]", "result": "Active"}, {"measurement": "Activity", "setting": "[8]", "result": "Dose-dependent effect"}, {"measurement": "Activity", "setting": "[9]", "result": "Active"}, {"measurement": "Activity", "setting": "[10]", "result": 39.16, "unit": "%"}, {"measurement": "Activity", "setting": "[11]", "result": 54.38, "unit": "%"}, {"measurement": "Activity_index", "setting": "[12]", "result": 2.62}, {"measurement": "Activity", "setting": "[13]", "result": "Active"}, {"measurement": "Activity", "setting": "[14]", "result": "Dose-dependent effect"}, {"measurement": "Activity", "setting": "[15]", "result": "Active"}, {"measurement": "Activity", "setting": "[16]", "result": "Active"}, {"measurement": "Activity", "setting": "[17]", "result": "Dose-dependent effect"}, {"measurement": "Activity", "setting": "[18]", "result": "Active"}, {"measurement": "Activity", "setting": "[19]", "result": 260, "unit": "%"}, {"measurement": "Activity", "setting": "[20]", "result": "Dose-dependent effect"}, {"measurement": "Activity", "setting": "[21]", "result": "Dose-dependent effect"}, {"measurement": "Activity", "setting": "[22]", "result": "Active"}, {"measurement": "Activity_index", "setting": "[23]", "result": 14.85}, {"measurement": "Activity", "setting": "[24]", "result": "Active"}, {"measurement": "Activity", "setting": "[25]", "result": "Active"}, {"measurement": "Activity", "setting": "[26]", "result": 72.12, "unit": "%"}, {"measurement": "Activity", "setting": "[27]", "result": "Active"}, {"measurement": "Activity", "setting": "[28]", "result": "Active"}, {"measurement": "Activity_index", "setting": "[29]", "result": 9.46}, {"measurement": "Activity", "setting": "[30]", "result": "Dose-dependent effect"}, {"measurement": "Activity", "setting": "[31]", "result": "Active"}, {"measurement": "Activity", "setting": "[32]", "result": "Dose-dependent effect"}, {"measurement": "Activity", "setting": "[33]", "result": "Active"}, {"measurement": "Activity", "setting": "[34]", "result": 66.31, "unit": "%"}]}
